Laboratory results: patent publication US20260234161A1, “RIFABUTIN ANALOGS FOR THE TREATMENT OF BACTERIAL DISEASES” (BIOVERSYS AG, priority 2023, published 2026)
Values after ≈ are worked out from the molar mass of the structure shown. Where two headings read alike, the source gives them in different places.

What was measured:
Format in all cases: cell-based
[1] = system: M. abscessus (ATCC 19977); experiment: MIC by broth microdilution, M. abscessus in cation adjusted Mueller Hinton broth; settings: Mycobacteroides abscessus, ATCC19977, 96 h, read-out: MIC M. abscessus MH
Description: (§1) MIC values were determined by broth microdilution method according to the CLSI guidelines with the following exceptions: MIC against A. baumannii was performed in RPMI medium supplemented with 10% FCS and MIC against M. abscessus was performed in Middlebrook 7H9 broth supplemented with Middlebrook ADC growth supplement (10%; see column “M. abscessus 7H9”). MIC forM abscessus was determined a second time in standard cation adjusted Mueller Hinton broth without growth supplement (see colum “M. abscessus MH”). All other MIC were performed in standard cation adjusted Mueller Hinton broth, supplemented with Middlebrook ADC growth supplement (5%) for the slow growing mycobacteria (M. xenopi, M. kansasii and M. avium).
(§2) The following procedure applies to all species tested, except forM xenopi. From a fresh culture plate (from overnight to several days depending on the bacteria), cells were resuspended in 0.9% (w/v) saline solution and bacterial inoculum was prepared in the respective testing medium with 5×10^5 CFU/mL. For M. xenopi, the inoculum was prepared from a fresh liquid culture (7H9+ADC). The appropriate volumes of a 10 mg/mL compound solution were directly dispensed in the 96-well assay plate using a digital dispenser to create two-fold dilution series from 32 to 0.002 μg/mL final concentration for A. baumannii and S. aureus; from 16 to 0.016 μg/mL for M. abscessus and M. avium; and from 1 to 6×10^−5 μg/mL for M. kansasii and M. xenopi. 100 μL of bacterial suspension was finally added to the compounds. Plates were covered and incubated without shaking at 35° C. for 20 hours for A. baumanii and S. aureus; at 30° C. for 4 days for M. abscessus; and at 37° C. for 7 days (at least) for M. kansasii (covered with aluminum foil to avoid light exposure), M. avium and M. xenopi. Every experiment contained an antibiotic as quality control. MIC was determined visually as the lowest concentration of a compound that prevents visible growth of the bacteria.
(§3) The in vitro activity of compounds described herein was determined against S. aureus (UAMS-1625 strain), A. baumannii (HUMC1 strain), M. abscessus (ATCC 19977), M. kansasii (ATCC 12478), M. avium (ATCC 25291), and M. xenopi (ATCC 19250).

[2] = system: S. aureus (UAMS-1625 strain); experiment: MIC by broth microdilution, S. aureus; settings: Staphylococcus aureus, 20 h, read-out: MIC S. aureus
Description: as §1, §2, §3

[3] = system: A. baumannii (HUMC1 strain); experiment: MIC by broth microdilution, A. baumannii (RPMI + 10% FCS); settings: Acinetobacter baumannii, read-out: MIC A. baumannii
Description: as §1, §2, §3

[4] = system: M. abscessus (ATCC 19977); experiment: MIC by broth microdilution, M. abscessus in Middlebrook 7H9 broth + ADC; settings: Mycobacteroides abscessus, ATCC19977, 96 h; ATCC 19977; Middlebrook 7H9 broth + ADC growth supplement (10%); 30° C., 4 days; read-out: MIC M. abscessus 7H9
Description: as §1, §2, §3

[5] = ATCC 19977, cation adjusted Mueller Hinton broth without growth supplement, 30° C., 4 days
[6] = HUMC1 strain, RPMI medium + 10% FCS, 35° C., 20 hours

Structure (SMILES)	MIC [1, 5]	MIC [2]	MIC [3, 6]	MIC [4]	MIC [1]	MIC ([3]; 20 h)
CO[C@H]1/C=C/O[C@@]2(C)Oc3c(C)c(O)c4c(c3C2=O)C2=NC3(CCN(CC(C)C)CC3)NC2=C(NC(=O)/C(C)=C\C=C\[C@H](C)[C@H](O)[C@@H](C)[C@@H](O)[C@@H](C)[C@H](OC(=O)N2CCC(N(C)C)CC2)[C@@H]1C)C4=O [Compound 3]	4 µg/mL (≈ 4.17 µM)	0.03 µg/mL (≈ 0.0313 µM)	≤ 0.002 µg/mL	0.5 µg/mL	–	–
CO[C@H]1/C=C/O[C@@]2(C)Oc3c(C)c(O)c4c(c3C2=O)C2=NC3(CCN(CC(C)C)CC3)NC2=C(NC(=O)/C(C)=C\C=C\[C@H](C)[C@H](O)[C@@H](C)[C@@H](O)[C@@H](C)[C@H](OC(=O)N2CCC(Nc3cccnc3)CC2)[C@@H]1C)C4=O [Compound 5]	4 µg/mL (≈ 3.97 µM)	0.125 µg/mL (≈ 0.124 µM)	0.004 µg/mL	1 µg/mL	–	–
CO[C@H]1/C=C/O[C@@]2(C)Oc3c(C)c(O)c4c(c3C2=O)C2=NC3(CCN(CC(C)C)CC3)NC2=C(NC(=O)/C(C)=C\C=C\[C@H](C)[C@H](O)[C@@H](C)[C@@H](O)[C@@H](C)[C@H](OC(=O)N2CCN(C)CC2)[C@@H]1C)C4=O [Compound 6]	4 µg/mL (≈ 4.3 µM)	0.06 µg/mL (≈ 0.0644 µM)	0.06 µg/mL	1 µg/mL	–	–
CO[C@H]1/C=C/O[C@@]2(C)Oc3c(C)c(O)c4c(c3C2=O)C2=NC3(CCN(CC(C)C)CC3)NC2=C(NC(=O)/C(C)=C\C=C\[C@H](C)[C@H](O)[C@@H](C)[C@@H](O)[C@@H](C)[C@H](OC(=O)N2CCN(C3CCN(C)CC3)CC2)[C@@H]1C)C4=O [Compound 11]	4 µg/mL (≈ 3.94 µM)	0.125 µg/mL (≈ 0.123 µM)	≤ 0.002 µg/mL	0.5 µg/mL	–	–
CO[C@H]1/C=C/O[C@@]2(C)Oc3c(C)c(O)c4c(c3C2=O)C2=NC3(CCN(CC(C)C)CC3)NC2=C(NC(=O)/C(C)=C\C=C\[C@H](C)[C@H](O)[C@@H](C)[C@@H](O)[C@@H](C)[C@H](OC(=O)N2CCN(CCN3CCCCC3)CC2)[C@@H]1C)C4=O [Compound 12]	1 µg/mL (≈ 0.972 µM)	0.125 µg/mL (≈ 0.122 µM)	≤ 0.002 µg/mL	0.5 µg/mL	–	–
CO[C@H]1/C=C/O[C@@]2(C)Oc3c(C)c(O)c4c(c3C2=O)C2=NC3(CCN(CC(C)C)CC3)NC2=C(NC(=O)/C(C)=C\C=C\[C@H](C)[C@H](O)[C@@H](C)[C@@H](O)[C@@H](C)[C@H](OC(=O)N2CCN(CCN3CCOCC3)CC2)[C@@H]1C)C4=O [Compound 13]	0.5 µg/mL (≈ 0.485 µM)	0.06 µg/mL (≈ 0.0582 µM)	≤ 0.002 µg/mL	0.5 µg/mL	–	–
CO[C@H]1/C=C/O[C@@]2(C)Oc3c(C)c(O)c4c(c3C2=O)C2=NC3(CCN(CC(C)C)CC3)NC2=C(NC(=O)/C(C)=C\C=C\[C@H](C)[C@H](O)[C@@H](C)[C@@H](O)[C@@H](C)[C@H](OC(=O)N2CCC(n3ccnc3)CC2)[C@@H]1C)C4=O [Compound 61]	4 µg/mL (≈ 4.07 µM)	0.03 µg/mL (≈ 0.0305 µM)	≤ 0.016 µg/mL	–	–	–
CO[C@H]1/C=C/O[C@@]2(C)Oc3c(C)c(O)c4c(c3C2=O)C2=NC3(CCN(CC(C)C)CC3)NC2=C(NC(=O)/C(C)=C\C=C\[C@H](C)[C@H](O)[C@@H](C)[C@@H](O)[C@@H](C)[C@H](OC(=O)N2CCC(N3CCCC3)CC2)[C@@H]1C)C4=O [Compound 62]	1 µg/mL (≈ 1.01 µM)	0.06 µg/mL (≈ 0.0609 µM)	≤ 0.016 µg/mL	–	–	–
CO[C@H]1/C=C/O[C@@]2(C)Oc3c(C)c(O)c4c(c3C2=O)C2=NC3(CCN(CC(C)C)CC3)NC2=C(NC(=O)/C(C)=C\C=C\[C@H](C)[C@H](O)[C@@H](C)[C@@H](O)[C@@H](C)[C@H](OC(=O)N2CCC3CCCCC3C2)[C@@H]1C)C4=O (stereo partly drawn) [Compound 64]	4 µg/mL (≈ 4.12 µM)	1 µg/mL (≈ 1.03 µM)	0.5 µg/mL	–	–	–
CO[C@H]1/C=C/O[C@@]2(C)Oc3c(C)c(O)c4c(c3C2=O)C2=NC3(CCN(CC(C)C)CC3)NC2=C(NC(=O)/C(C)=C\C=C\[C@H](C)[C@H](O)[C@@H](C)[C@@H](O)[C@@H](C)[C@H](OC(=O)N2CCCC3(CN(CC5CCCCC5)C3)C2)[C@@H]1C)C4=O [Compound 65]	0.125 µg/mL (≈ 0.119 µM)	0.5 µg/mL (≈ 0.475 µM)	0.004 µg/mL	–	–	–
CO[C@H]1/C=C/O[C@@]2(C)Oc3c(C)c(O)c4c(c3C2=O)C2=NC3(CCN(CC(C)C)CC3)NC2=C(NC(=O)/C(C)=C\C=C\[C@H](C)[C@H](O)[C@@H](C)[C@@H](O)[C@@H](C)[C@H](OC(=O)N2CC3(CCN(CC5CCCCC5)CC3)C2)[C@@H]1C)C4=O [Compound 66]	0.125 µg/mL (≈ 0.119 µM)	0.125 µg/mL (≈ 0.119 µM)	0.004 µg/mL	–	–	–
CCN1CCC2(CC1)CCN(C(=O)O[C@H]1[C@H](C)[C@H](O)[C@H](C)[C@@H](O)[C@@H](C)/C=C/C=C(/C)C(=O)NC3=C4NC5(CCN(CC(C)C)CC5)N=C4c4c(c(O)c(C)c5c4C(=O)[C@@](C)(O/C=C/[C@H](OC)[C@H]1C)O5)C3=O)CC2 [Compound 68]	1 µg/mL (≈ 0.987 µM)	0.06 µg/mL (≈ 0.0592 µM)	0.003 µg/mL	–	–	–
CO[C@H]1/C=C/O[C@@]2(C)Oc3c(C)c(O)c4c(c3C2=O)C2=NC3(CCN(CC(C)C)CC3)NC2=C(NC(=O)/C(C)=C\C=C\[C@H](C)[C@H](O)[C@@H](C)[C@@H](O)[C@@H](C)[C@H](OC(=O)N2CCC3(CC2)CCN(C(C)C)CC3)[C@@H]1C)C4=O [Compound 69]	1 µg/mL (≈ 0.973 µM)	0.125 µg/mL (≈ 0.122 µM)	0.002 µg/mL	–	–	–
CO[C@H]1/C=C/O[C@@]2(C)Oc3c(C)c(O)c4c(c3C2=O)C2=NC3(CCN(CC(C)C)CC3)NC2=C(NC(=O)/C(C)=C\C=C\[C@H](C)[C@H](O)[C@@H](C)[C@@H](O)[C@@H](C)[C@H](OC(=O)N2CCC3(CCN(CC(C)C)CC3)CC2)[C@@H]1C)C4=O [Compound 70]	0.25 µg/mL (≈ 0.24 µM)	0.125 µg/mL (≈ 0.12 µM)	0.004 µg/mL	–	–	–
CO[C@H]1/C=C/O[C@@]2(C)Oc3c(C)c(O)c4c(c3C2=O)C2=NC3(CCN(CC(C)C)CC3)NC2=C(NC(=O)/C(C)=C\C=C\[C@H](C)[C@H](O)[C@@H](C)[C@@H](O)[C@@H](C)[C@H](OC(=O)N2CCC3(CCN(CCC(C)C)CC3)CC2)[C@@H]1C)C4=O [Compound 71]	0.25 µg/mL (≈ 0.237 µM)	0.25 µg/mL (≈ 0.237 µM)	0.008 µg/mL	–	–	–
CO[C@H]1/C=C/O[C@@]2(C)Oc3c(C)c(O)c4c(c3C2=O)C2=NC3(CCN(CC(C)C)CC3)NC2=C(NC(=O)/C(C)=C\C=C\[C@H](C)[C@H](O)[C@@H](C)[C@@H](O)[C@@H](C)[C@H](OC(=O)NC2CCN(C)CC2)[C@@H]1C)C4=O [Compound 73]	–	0.03 µg/mL (≈ 0.0317 µM)	–	–	1 µg/mL (≈ 1.06 µM)	0.001 µg/mL
CCN1CCC(NC(=O)O[C@H]2[C@H](C)[C@H](O)[C@H](C)[C@@H](O)[C@@H](C)/C=C/C=C(/C)C(=O)NC3=C4NC5(CCN(CC(C)C)CC5)N=C4c4c(c(O)c(C)c5c4C(=O)[C@@](C)(O/C=C/[C@H](OC)[C@H]2C)O5)C3=O)CC1 [Compound 74]	2 µg/mL (≈ 2.09 µM)	0.03 µg/mL (≈ 0.0313 µM)	≤ 0.001 µg/mL	–	–	–
CCCN1CCC(NC(=O)O[C@H]2[C@H](C)[C@H](O)[C@H](C)[C@@H](O)[C@@H](C)/C=C/C=C(/C)C(=O)NC3=C4NC5(CCN(CC(C)C)CC5)N=C4c4c(c(O)c(C)c5c4C(=O)[C@@](C)(O/C=C/[C@H](OC)[C@H]2C)O5)C3=O)CC1 [Compound 75]	1 µg/mL (≈ 1.03 µM)	0.06 µg/mL (≈ 0.0617 µM)	0.001 µg/mL	–	–	–
CO[C@H]1/C=C/O[C@@]2(C)Oc3c(C)c(O)c4c(c3C2=O)C2=NC3(CCN(CC(C)C)CC3)NC2=C(NC(=O)/C(C)=C\C=C\[C@H](C)[C@H](O)[C@@H](C)[C@@H](O)[C@@H](C)[C@H](OC(=O)NC2CCN(C(C)C)CC2)[C@@H]1C)C4=O [Compound 76]	2 µg/mL (≈ 2.06 µM)	0.03 µg/mL (≈ 0.0308 µM)	≤ 0.001 µg/mL	–	–	–
CO[C@H]1/C=C/O[C@@]2(C)Oc3c(C)c(O)c4c(c3C2=O)C2=NC3(CCN(CC(C)C)CC3)NC2=C(NC(=O)/C(C)=C\C=C\[C@H](C)[C@H](O)[C@@H](C)[C@@H](O)[C@@H](C)[C@H](OC(=O)NC2CCN(C3CCOCC3)CC2)[C@@H]1C)C4=O [Compound 78]	–	0.06 µg/mL (≈ 0.0591 µM)	–	–	2 µg/mL (≈ 1.97 µM)	≤ 0.001 µg/mL
CO[C@H]1/C=C/O[C@@]2(C)Oc3c(C)c(O)c4c(c3C2=O)C2=NC3(CCN(CC(C)C)CC3)NC2=C(NC(=O)/C(C)=C\C=C\[C@H](C)[C@H](O)[C@@H](C)[C@@H](O)[C@@H](C)[C@H](OC(=O)N(C)C2CC2)[C@@H]1C)C4=O [Compound 82]	4 µg/mL (≈ 4.43 µM)	0.06 µg/mL (≈ 0.0665 µM)	0.008 µg/mL	–	–	–
CO[C@H]1/C=C/O[C@@]2(C)Oc3c(C)c(O)c4c(c3C2=O)C2=NC3(CCN(CC(C)C)CC3)NC2=C(NC(=O)/C(C)=C\C=C\[C@H](C)[C@H](O)[C@@H](C)[C@@H](O)[C@@H](C)[C@H](OC(=O)N(C)C(C)C)[C@@H]1C)C4=O [Compound 83]	2 µg/mL (≈ 2.21 µM)	0.125 µg/mL (≈ 0.138 µM)	0.016 µg/mL	–	–	–
